{
  "source": "patent EP3010915B1",
  "about": "(priority 2013, dated 2014)",
  "data": [
    {"system": "heme oxygenase 1 (HMOX1)", "experiment": "Expression array experiments", "assay_type": "cell-based", "details": "multiple cell lines; data not shown", "experimental": "As HMOX1 is known to be regulated by H3 methylation in the promoter (Krieg, A. J., et al. Mol Cell Biol 2010, 30 (1), 344-53), the effect of the test compounds on HMOX1 expression in T-47D cells was determined (see Tables 6 and 7).", "values": [
      {"smiles": "C/C(=N\\NC(=O)c1cccc(S(=O)(=O)N2CCOCC2)c1)c1cc(Cl)ccc1O", "note": "[Compound 12, (E)-N'-(1-(5-chloro-2-hydroxyphenyl)ethylidene)-3-(morpholinosulfonyl)benzohydrazide]", "transcriptional changes, HMOX1": "one of the most consistently up-regulated genes"}
    ]},
    {"target": "T1, LSD1 (Homo sapiens, UniProt O60341)", "T1 construct": "purchased Cayman Chemical Company 700120", "experiment": "not given", "assay_type": "biochemical", "details": "not given", "units": {"IC50": "µM"}, "values": [
      {"smiles": "C/C(=N\\NC(=O)c1ccc(Cl)c(Br)c1)c1cc(Cl)ccc1O", "note": "[Compound 17]", "IC50": "> 3"},
      {"smiles": "C/C(=N\\NC(=O)c1ccccc1S(=O)(=O)N1CCOCC1)c1cc(Cl)ccc1O", "note": "[Compound 28, (E)-N'-(1-(5-chloro-2-hydroxyphenyl)ethylidene)-2-(morpholinosulfonyl)benzohydrazide]", "IC50": "> 3"},
      {"smiles": "C/C(=N\\NC(=O)c1cccc(S(=O)(=O)N2CCOCC2)c1)c1cccc(Cl)c1F", "note": "[Compound 13]", "IC50": "> 3"},
      {"smiles": "C/C(=N\\NC(=O)c1cccc(S(=O)(=O)N2CCOCC2)c1)c1cc(Cl)ccc1Cl", "note": "[Compound 16]", "IC50": "> 3"},
      {"smiles": "C/C(=N\\NC(=O)c1cnc(Cl)c(Br)c1)c1cc(Cl)ccc1O", "note": "[Compound 19]", "IC50": "> 3"},
      {"smiles": "COc1ccc(Cl)cc1C(=O)NNC(=O)c1cc(S(=O)(=O)N2CCOCC2)ccc1F", "note": "[Compound 6]", "IC50": "> 3"},
      {"smiles": "C/C(=N\\NC(=O)c1cccc(S(=O)(=O)N2CCOCC2)c1)c1ccnc(Cl)c1", "note": "[Compound 15]", "IC50": "> 3"},
      {"smiles": "Cc1cn(C(=O)c2cccc(S(=O)(=O)N3CCOCC3)c2)nc1-c1cc(Cl)ccc1O", "note": "[Compound 37, (3-(5-chloro-2-hydroxyphenyl)-4-methyl-1H-pyrazol-1-yl)(3-(morpholinosulfonyl)phenyl)methanone]", "IC50": "> 3"},
      {"smiles": "C/C(=N\\NC(=O)c1ccccc1)c1c(O)cccc1O", "note": "[Compound 14]", "IC50": "> 3"},
      {"smiles": "C/C(=N\\NC(=O)c1cccc(S(=O)(=O)N2CCOCC2)c1)c1cc(Cl)ccc1[N+](=O)[O-]", "note": "[Compound 32, (E)-N'-(1-(5-chloro-2-nitrophenyl)ethylidene)-3-(morpholinosulfonyl)benzohydrazide]", "IC50": "> 3"},
      {"smiles": "O=C(NNC(=O)c1cc(S(=O)(=O)N2CCOCC2)ccc1F)c1cccc(Cl)c1", "note": "[Compound 7]", "IC50": "> 3"},
      {"smiles": "C/C(=N\\NC(=O)c1cccc(S(=O)(=O)N2CCOCC2)c1)c1cccnc1", "note": "[Compound 22]", "IC50": "> 3"},
      {"smiles": "CCN(CC)S(=O)(=O)c1ccc(F)c(C(=O)NNC(=O)c2ccc(C)cc2)c1", "note": "[Compound 8]", "IC50": "> 3"},
      {"smiles": "C/C(=N\\NC(=O)c1cccc(S(=O)(=O)N2CCOCC2)c1)c1cc(Cl)ccc1O", "note": "[Compound 12, (E)-N'-(1-(5-chloro-2-hydroxyphenyl)ethylidene)-3-(morpholinosulfonyl)benzohydrazide]", "IC50": 0.013},
      {"smiles": "C/C(=N\\NC(=O)c1cccc(S(=O)(=O)N2CCOCC2)c1)c1cc(Cl)ccc1F", "note": "[Compound 27, (E)-N'-(1-(5-chloro-2-fluorophenyl)ethylidene)-3-(morpholinosulfonyl)benzohydrazide]", "IC50": "> 3"},
      {"smiles": "CC/C(=N\\NC(=O)c1cccc(S(=O)(=O)N2CCOCC2)c1)c1cc(Cl)ccc1O", "note": "[Compound 21, (E)-N'-(1-(5-CHLORO-2-HYDROXYPHENYL)PROPYLIDENE)-3-(MORPHOLINOSULFONYL)BENZOHYDRAZIDE]", "IC50": "> 3"},
      {"smiles": "C/C(=N\\NC(=O)c1cncc(Cl)c1)c1cc(Cl)ccc1O", "note": "[Compound 20]", "IC50": "> 3"}
    ]}
  ]
}
